# Results reported in patent US20210130417A1, “SYSTEMS AND METHODS FOR DESIGNING SYNTHETIC ANTIMICROBIAL PEPTIDES” (University of Notre Dame du Lac, priority 2017, published 2021).
# Residues, ends and D or L forms follow the SMILES beside them.
# Experiments:
# HaCaT cells = assay: Ethidium homodimer cytotoxicity assay; format: cell-based, human
# Description: Medium was aspirated, and cells were washed with PBS. […] Cells were incubated with peptide for 16 h. Medium was aspirated, and cells were washed with PBS. […] The fluorescence was read again. […] Washed cells were resuspended in 25 mL of PBS. […] Samples were read at 450 nm.
# [1] = test system: sheep red blood cells (RBCs); details: at the concentrations tested
# Description: For hemolysis assays, 100 μL of sheep red blood cells (RBCs) were washed three times in cold PBS (Thermo Fischer). Washed cells were resuspended in 25 mL of PBS. Triton, PBS, or peptide in 10% DMSO/PBS were added to 180 μL of resuspended RBCs and incubated at 37° C. for 1 h. Samples were read at 450 nm. Data was expressed as percent hemolysis by relativizing to the Triton and PBS controls.
compound,measurement,setting,value
CC[C@H](C)[C@H](NC(=O)[C@H](CC(C)C)NC(=O)[C@H](CO)NC(=O)[C@@H](N)CC(C)C)C(=O)N[C@@H](C)C(=O)N[C@@H](C)C(=O)N[C@@H](C)C(=O)NCC(=O)N[C@@H](CCCCN)C(=O)N[C@@H](CCC(=O)O)C(=O)N[C@H](C(=O)N[C@H](C(=O)N[C@@H](CCCNC(=N)N)C(=O)N[C@@H](CCC(N)=O)C(=O)N[C@@H](Cc1ccc(O)cc1)C(=O)N[C@@H](CC(C)C)C(=O)N[C@@H](CCCCN)C(=O)N[C@@H](CC(N)=O)C(=O)N[C@@H](CCC(=O)O)C(=O)N[C@H](C(=O)N[C@@H](CCCCN)C(=O)N[C@@H](CCCCN)C(=O)N[C@@H](CCCCN)C(=O)NCC(=O)N[C@@H](CCCNC(=N)N)C(=O)N[C@@H](CCCCN)C(=O)N[C@@H](C)C(=O)N[C@H](C(=O)N[C@H](C(=O)N[C@@H](C)C(=O)N[C@@H](Cc1c[nH]c2ccccc12)C(=O)O)[C@@H](C)CC)C(C)C)[C@@H](C)CC)[C@@H](C)CC)[C@@H](C)O [syn-safencin] (H-LSLIAAAGKETIRQYLKNEIKKKGRKAVIAW-OH),"cytotoxicity, dose dependence","HaCaT cells; HaCaT cells treated for 16 h, up to 32 μM",slight dose-dependent increase in cytotoxicity
same,cytotoxicity at the MIC for X. axonopodis,"HaCaT cells; HaCaT cells, 16 h, 8 μM peptide",no significant increase in cytotoxicity
same,percent of cytotoxicity,"HaCaT cells; HaCaT cells, 16 h, 32 μM peptide (highest dose), vehicle control 17%",~25%
same,hemolytic activity,[1],mild hemolytic activity
